Results published in the NIST ThermoML archive (doi:10.1021/je700755t).

Experiment: xn = mol fraction of the nth substance listed
Conditions: 101 kPa, Liquid; for viscosity: Capillary tube (Ostwald / Ubbelohde) method

CC(=O)O [acetic acid] + CN(C)C=O
Conditions	mass density [kg/m3]	viscosity [mPa·s]
303.15 K, x1 = 0.1004	950.1	0.847
303.15 K, x1 = 0.2009	961.18	0.967
303.15 K, x1 = 0.3012	972.65	1.108
303.15 K, x1 = 0.4014	984.49	1.283
303.15 K, x1 = 0.5014	996.33	1.457
303.15 K, x1 = 0.6014	1007.74	1.613
303.15 K, x1 = 0.7011	1018.12	1.656
303.15 K, x1 = 0.8008	1027.13	1.582
303.15 K, x1 = 0.9006	1034.47	1.375
303.15 K, x1 = 1	1038.66	1.059
313.15 K, x1 = 0.1004	940.75	0.75
313.15 K, x1 = 0.2009	951.76	0.848
313.15 K, x1 = 0.3012	963.18	0.973
313.15 K, x1 = 0.4014	974.95	1.112
313.15 K, x1 = 0.5014	986.68	1.249
313.15 K, x1 = 0.6014	997.98	1.357
313.15 K, x1 = 0.7011	1008.11	1.39
313.15 K, x1 = 0.8008	1016.84	1.331
313.15 K, x1 = 0.9006	1023.84	1.166
313.15 K, x1 = 1	1027.37	0.92
323.15 K, x1 = 0.1004	931.27	0.669
323.15 K, x1 = 0.2009	942.27	0.752
323.15 K, x1 = 0.3012	953.63	0.85
323.15 K, x1 = 0.4014	965.33	0.965
323.15 K, x1 = 0.5014	976.95	1.071
323.15 K, x1 = 0.6014	988.11	1.157
323.15 K, x1 = 0.7011	998.02	1.18
323.15 K, x1 = 0.8008	1006.49	1.132
323.15 K, x1 = 0.9006	1013.13	1.002
323.15 K, x1 = 1	1016.08	0.804
333.15 K, x1 = 0.1004	921.19	0.597
333.15 K, x1 = 0.2009	932.18	0.673
333.15 K, x1 = 0.3012	943.49	0.755
333.15 K, x1 = 0.4014	955.11	0.843
333.15 K, x1 = 0.5014	966.55	0.935
333.15 K, x1 = 0.6014	977.59	0.998
333.15 K, x1 = 0.7011	987.28	1.015
333.15 K, x1 = 0.8008	995.48	0.976
333.15 K, x1 = 0.9006	1001.78	0.87
333.15 K, x1 = 1	1005.04	0.709
343.15 K, x1 = 0.1004	911.56	0.547
343.15 K, x1 = 0.2009	922.54	0.607
343.15 K, x1 = 0.3012	933.82	0.674
343.15 K, x1 = 0.4014	945.35	0.749
343.15 K, x1 = 0.5014	956.68	0.824
343.15 K, x1 = 0.6014	967.55	0.873
343.15 K, x1 = 0.7011	977.06	0.885
343.15 K, x1 = 0.8008	984.99	0.852
343.15 K, x1 = 0.9006	990.93	0.764
343.15 K, x1 = 1	993.69	0.632
353.15 K, x1 = 0.1004	901.58	0.499
353.15 K, x1 = 0.2009	912.55	0.551
353.15 K, x1 = 0.3012	923.82	0.608
353.15 K, x1 = 0.4014	935.28	0.67
353.15 K, x1 = 0.5014	946.48	0.73
353.15 K, x1 = 0.6014	957.19	0.771
353.15 K, x1 = 0.7011	966.49	0.78
353.15 K, x1 = 0.8008	974.17	0.751
353.15 K, x1 = 0.9006	979.73	0.677
353.15 K, x1 = 1	982.95	0.57

O=CO [formic acid] + CN(C)C=O
Conditions	mass density [kg/m3]	viscosity [mPa·s]
303.15 K, x1 = 0.1001	953.65	0.831
303.15 K, x1 = 0.2	969.23	0.93
303.15 K, x1 = 0.3001	986.66	1.048
303.15 K, x1 = 0.4	1006.16	1.186
303.15 K, x1 = 0.4999	1027.99	1.324
303.15 K, x1 = 0.6003	1053.17	1.466
303.15 K, x1 = 0.7005	1081.71	1.555
303.15 K, x1 = 0.7998	1115.25	1.562
303.15 K, x1 = 0.9002	1157.02	1.533
303.15 K, x1 = 1	1205.07	1.437
313.15 K, x1 = 0.1001	943.97	0.738
313.15 K, x1 = 0.2	959.57	0.815
313.15 K, x1 = 0.3001	977.07	0.92
313.15 K, x1 = 0.4	996.43	1.028
313.15 K, x1 = 0.4999	1018.12	1.143
313.15 K, x1 = 0.6003	1043.03	1.253
313.15 K, x1 = 0.7005	1071.28	1.313
313.15 K, x1 = 0.7998	1104.39	1.342
313.15 K, x1 = 0.9002	1145.58	1.33
313.15 K, x1 = 1	1192.81	1.205
323.15 K, x1 = 0.1001	934.86	0.662
323.15 K, x1 = 0.2	950.34	0.725
323.15 K, x1 = 0.3001	967.77	0.808
323.15 K, x1 = 0.4	986.86	0.898
323.15 K, x1 = 0.4999	1008.39	0.992
323.15 K, x1 = 0.6003	1033.04	1.076
323.15 K, x1 = 0.7005	1060.99	1.121
323.15 K, x1 = 0.7998	1093.73	1.14
323.15 K, x1 = 0.9002	1134.05	1.117
323.15 K, x1 = 1	1180.63	1.022
333.15 K, x1 = 0.1001	924.58	0.59
333.15 K, x1 = 0.2	939.91	0.649
333.15 K, x1 = 0.3001	957.33	0.72
333.15 K, x1 = 0.4	976.15	0.793
333.15 K, x1 = 0.4999	997.5	0.867
333.15 K, x1 = 0.6003	1021.94	0.933
333.15 K, x1 = 0.7005	1049.51	0.971
333.15 K, x1 = 0.7998	1081.77	0.982
333.15 K, x1 = 0.9002	1121.74	0.959
333.15 K, x1 = 1	1167.44	0.879
343.15 K, x1 = 0.1001	915.36	0.538
343.15 K, x1 = 0.2	930.7	0.587
343.15 K, x1 = 0.3001	947.93	0.643
343.15 K, x1 = 0.4	966.58	0.708
343.15 K, x1 = 0.4999	987.75	0.768
343.15 K, x1 = 0.6003	1011.92	0.823
343.15 K, x1 = 0.7005	1039.13	0.85
343.15 K, x1 = 0.7998	1070.96	0.857
343.15 K, x1 = 0.9002	1110.03	0.835
343.15 K, x1 = 1	1154.99	0.766
353.15 K, x1 = 0.1001	905.11	0.492
353.15 K, x1 = 0.2	920.26	0.534
353.15 K, x1 = 0.3001	937.3	0.582
353.15 K, x1 = 0.4	955.9	0.635
353.15 K, x1 = 0.4999	976.91	0.693
353.15 K, x1 = 0.6003	1000.84	0.732
353.15 K, x1 = 0.7005	1027.78	0.754
353.15 K, x1 = 0.7998	1059.18	0.756
353.15 K, x1 = 0.9002	1097.86	0.736
353.15 K, x1 = 1	1142.08	0.677
